Measurements taken from paper PMC6943619, “Synthesis and Pharmacological Evaluation of Hybrids Targeting Opioid and Neurokinin Receptors” (Molecules, 2019).
Where a SMILES comes first, the peptide text is derived from it. Bridges are numbered along the chain shown (N, C = ends). [ ]: non-standard residue; d: D form. Nle = CCCC[C@H](N)C(=O)O

Assays:
human NK1 [1] = biological target: T1, human NK1 (Homo sapiens, UniProt P25103); assay: Calcium mobilization functional assay, agonist mode, CHONK1 cells; type: cell-based; design: expressed in transfected cells; host or cells: CHO cells (gift of Prof. T. Costa, ISS, Rome); conditions: for NK1 α ± SEM: efficacy (intrinsic activity), Emax relative to SP
T1 sequence (P25103 whole entry): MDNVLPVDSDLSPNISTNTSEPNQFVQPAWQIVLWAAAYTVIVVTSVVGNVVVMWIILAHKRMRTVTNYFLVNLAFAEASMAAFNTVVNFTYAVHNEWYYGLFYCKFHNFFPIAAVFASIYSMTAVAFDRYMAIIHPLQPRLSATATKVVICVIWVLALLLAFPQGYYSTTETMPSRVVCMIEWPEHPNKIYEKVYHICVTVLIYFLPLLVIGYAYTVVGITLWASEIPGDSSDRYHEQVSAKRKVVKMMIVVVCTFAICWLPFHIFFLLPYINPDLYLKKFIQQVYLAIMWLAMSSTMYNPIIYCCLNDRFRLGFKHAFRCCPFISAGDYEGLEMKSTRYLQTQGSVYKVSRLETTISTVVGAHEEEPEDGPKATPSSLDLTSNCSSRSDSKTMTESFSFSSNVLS

mice [2] = assay: Writhing test (acetic acid, acute pain model); type: in vivo; conditions: 5 mg/kg i.p., single injection 15 min before i.p. acetic acid (0.5%, 10 mL/kg), writhes counted 15 min, saline baseline about 35, average, n = 10
Protocol: The writhing test was used as an acute pain model. This test involves intraperitoneal (i.p.) injection of acetic acid which results in abdominal constriction, causing the mice to writhe. Peptides or saline (control) were administered i.p. over a concentration range of 0.3 to 5 mg/kg at 15 min before the injection of acetic acid (0.5%, 10 mL/kg). The baseline number of writhes in the saline-treated animals was about 35.
Peptides or vehicle were administered 15 min before the i.p. injection of acetic acid (0.5%, 10 mL/kg). The number of writhes was determined 5 min after acetic acid injection over a period of 15 min. The data represent mean ± SEM, n = 10.
Male Balb/c mice (Animal Facility of Nofer Institute of Occupational Medicine, Lodz, Poland) weighing 22–25 g were used in the study. The animals were housed under standard conditions (22 ± 1 °C, 12 h light/dark cycle) with food and water ad libitum for five days before the experiments.
Antinociceptive activity was assessed by the writhing test. Mice were divided into groups of 10 animals each. A single i.p. injection of saline or a tested compound (at doses 0.3, 1, 3, or 5 mg/kg) was followed (after 15 min) by the i.p. administration of acetic acid (0.65% in 0.9% NaCl, 10 mL/kg) [53]. After 5 min recovery, specific spontaneous behaviors characterized by elongation of the body (“writhes”) were counted for 15 min.

mice [3] = assay: Stool collection (stool mass, stool water content); type: in vivo; conditions: repeated i.p. injections 5 mg/kg, stool collected 90 min after injection on Days 1–6, compared to control group, n = 10
Protocol: In order to determine the influence of prolonged administration of the tested compounds on gastrointestinal passage, stool was collected for six days from mice used in the tolerance development test.
Figure 5 Effect of repeated i.p. injections of saline and the tested peptides on stool mass (A), stool water content (B), food intake (C), and water consumption (D). The data represent mean ± SEM, n = 10. Statistical significance was assessed using one-way ANOVA and a post hoc multiple comparison by the Student–Newman–Keuls test. *** p < 0.001, as compared to control.
After the i.p. injections of saline or peptides (Days 1–6), mice were placed in a separate clean cages and stool was collected for a period of 90 min. Fecal pellets were collected immediately after expulsion to avoid evaporation and placed in closed 1.5 mL tubes. Tubes were weighed to obtain the wet weight of the stool. Then, the tubes were opened and stool was dried overnight at 65 °C and reweighed to obtain the dry weight. The stool water content was calculated from the difference between the wet and dry stool weights.

[4] = biological target: T2, human opioid receptor MOR (Homo sapiens, UniProt P35372); assay: Radioligand binding assay, displacement of [3H]DAMGO; conditions: displacement of [3H]DAMGO from membranes of CHO cells transfected with human MOR, 50 mM Tris/HCl pH 7.4, 0.5% BSA, peptidase inhibitors, 2 h at 25 °C, mean ± SEM, n ≥ 3
T2 construct: purchased PerkinElmer (Krakow, Poland); host or cells: CHO cell membranes
T2 sequence (P35372 whole entry): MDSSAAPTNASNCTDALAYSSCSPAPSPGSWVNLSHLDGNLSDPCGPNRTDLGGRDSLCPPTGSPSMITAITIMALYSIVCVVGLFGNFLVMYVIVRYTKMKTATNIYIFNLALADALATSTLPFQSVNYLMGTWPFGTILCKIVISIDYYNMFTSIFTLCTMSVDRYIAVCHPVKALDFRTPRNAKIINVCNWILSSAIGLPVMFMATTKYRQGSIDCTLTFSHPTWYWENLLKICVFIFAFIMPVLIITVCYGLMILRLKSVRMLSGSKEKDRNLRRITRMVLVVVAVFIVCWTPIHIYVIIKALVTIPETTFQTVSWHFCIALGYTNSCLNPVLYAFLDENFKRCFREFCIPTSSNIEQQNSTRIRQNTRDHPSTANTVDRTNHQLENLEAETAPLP
Protocol: A radioligand binding assay was performed to determine the opioid receptor (OR) binding affinities of the novel analogs using commercially available membranes of Chinese hamster ovary cells (CHO) transfected with human recombinant ORs. [^3H]DAMGO, [^3H]deltorphin-2, and [^3H]U-69593 were used as the radioligands for MOR, DOR, and KOR, respectively. Tyr-[D-Lys-Phe-Phe-Asp]NH2 (1) was used as a reference opioid compound. […] None of them acquired significant DOR affinity.
To determine the affinity of peptide analogs to respective receptors, competition binding experiments were performed, as described in detail elsewhere.
Commercial membranes of CHO cells stably expressing either human ORs or NK1 receptor were used. [^3H]DAMGO, [^3H]deltorphin-2, and [^3H]U-69593 were employed as the competing radioligands for MOR, DOR, and KOR, respectively, while [^3H][Sar^9, Met(O2)^11]SP was utilized for the NK1 receptor. Membranes were incubated in a 0.5 mL volume of 50 mM Tris/HCl (pH = 7.4), 0.5% bovine serum albumin (BSA), with a number of peptidase inhibitors (bacitracin, bestatin, captopril) and various concentrations of radioligands for 2 h at 25 °C. Nonspecific binding was assessed in the presence of […] naloxone for ORs or SP for NK1 receptor.
The pharmacological terminology adopted in this paper is consistent with International Union of Basic and Clinical Pharmacology (IUPHAR) recommendations. Concentration–response curves were analyzed by nonlinear regression using Graph Pad Prism 6.0 (La Jolla, CA, USA). […]. […] Concentration–response curves were fitted with the four-parameter logistic nonlinear regression model (1) Effect=baseline+Emax−baseline/1+10^logEC50−X·n where X is the agonist concentration and n is the Hill coefficient. Ligand efficacy was expressed as intrinsic activity (α) calculated as a ratio of the peptide Emax to the Emax of the standard agonist (Supplementary Materials, Figure S7). […]. All statistical analyses were performed using Graph Pad Prism 6.0 (La Jolla, CA, USA). Differences between groups were analyzed with one-way ANOVA and a post hoc multiple comparison by the Student–Newman–Keuls test. A probability level of 0.05 or smaller was used to indicate statistical significance.

human MOR = biological target: T3, human MOR (Homo sapiens, UniProt P35372); assay: Calcium mobilization functional assay, agonist mode; type: cell-based; conditions: for MOR α ± SEM: efficacy (intrinsic activity), Emax relative to EM-2, mean ± SEM
T3 construct: expressed in transfected cells; host or cells: CHO cells (University of Ferrara), co-expressing Gαqi5
T3 sequence (P35372 whole entry): as above

human NK1 [5] = biological target: T1, human NK1; assay: Calcium mobilization assay, inhibition response experiments against SP; type: cell-based; design: expressed in transfected cells; host or cells: CHO cells (gift of Prof. T. Costa, ISS, Rome)
Protocol: Following aspiration of the loading solution and a washing step, serial dilutions of peptide stock solutions were added.
The pharmacological terminology adopted in this paper is consistent with International Union of Basic and Clinical Pharmacology (IUPHAR) recommendations. Concentration–response curves were analyzed by nonlinear regression using Graph Pad Prism 6.0 (La Jolla, CA, USA). […] Concentration–response curves were fitted with the four-parameter logistic nonlinear regression model (1) Effect=baseline+Emax−baseline/1+10^logEC50−X·n where X is the agonist concentration and n is the Hill coefficient. Ligand efficacy was expressed as intrinsic activity (α) calculated as a ratio of the peptide Emax to the Emax of the standard agonist (Supplementary Materials, Figure S7). […] All statistical analyses were performed using Graph Pad Prism 6.0 (La Jolla, CA, USA). Differences between groups were analyzed with one-way ANOVA and a post hoc multiple comparison by the Student–Newman–Keuls test. A probability level of 0.05 or smaller was used to indicate statistical significance.

[6] = CHO cells co-expressing human MOR and Gαqi5, n = 5, SEM

SMILES	EC50 (human NK1 [1]) [nM]	lower potency at NK1 than SP (human NK1 [1]; calcium mobilization, CHONK1 cells, from pEC50 values)	NK1 α ± SEM (human NK1 [1]; CHONK1 cells, N = 5, SEM)	number of writhes (mice [2])	stool mass (constipation) (mice [3])	Ki [4] [nM]	MOR α ± SEM (human MOR; [6])	NK1 pEC50 (CL95%) (human NK1 [1]; CHO cells expressing human NK1 (CHONK1), Fluo-4 AM calcium signal, N = 5)	NK1 α ± SEM (human NK1 [1]; CHONK1 cells, N = 5)	Kb (human NK1 [5]) [nM]	EC50 (human MOR; CHO cells co-expressing human MOR and Gαqi5, Fluo-4 AM calcium signal, n = 5, read-out: MOR pEC50 (CL95%) (converted)) [nM]	lower potency at MOR as compared with 1 (human MOR; calcium mobilization, from pEC50 values) [fold]	MOR α ± SEM (human MOR; CHO cells co-expressing human MOR and Gαqi5, n = 5)
CSCC[C@H](NC(=O)[C@H](CC(C)C)NC(=O)CNC(=O)[C@H](Cc1ccccc1)NC(=O)[C@H](Cc1ccccc1)NC(=O)[C@H](CCC(N)=O)NC(=O)[C@@H]1CC(=O)NCCCC[C@@H](NC(=O)[C@@H](N)Cc2ccc(O)cc2)C(=O)N[C@@H](Cc2ccccc2)C(=O)N[C@@H](Cc2ccccc2)C(=O)N1)C(N)=O [compound 4, Tyr-[D-Lys-Phe-Phe-Asp]-Gln-Phe-Phe-Gly-Leu-Met-NH2] (H-Y[dK]FFDQFFGLM-NH2; lactam 2-5)	3.55	fourfold	0.96 ± 0.05	4.5	no statistically significant differences	7.98 ± 0.97	0.90 ± 0.04	–	–	–	–	–	–
CCCC[C@H](NC(=O)[C@H](CC(C)C)NC(=O)[C@@H](Cc1c[nH]c2ccccc12)NC(=O)[C@H](Cc1ccccc1)NC(=O)[C@@H](Cc1c[nH]c2ccccc12)NC(=O)[C@H](CC(N)=O)NC(=O)[C@@H]1CC(=O)NCCCC[C@@H](NC(=O)[C@@H](N)Cc2ccc(O)cc2)C(=O)N[C@@H](Cc2ccccc2)C(=O)N[C@@H](Cc2ccccc2)C(=O)N1)C(N)=O [compound 2, Tyr-[D-Lys-Phe-Phe-Asp]-Asn-D-Trp-Phe-D-Trp-Leu-Nle-NH2] (H-Y[dK]FFDN[dW]F[dW]L[Nle]-NH2; lactam 2-5)	–	–	–	12.4	no statistically significant differences	5.99 ± 0.7	0.66 ± 0.04	Inactive	Inactive	46.8	31.6	30	0.66
